Data: patent US20060228694A1, “Methods to individualize combination therapy” (priority 2003, published 2006)

Tested on: A549 cells
Assay: In vitro cytotoxicity screening with median-effect (combination index) analysis of irinotecan and carboplatin
Assay type: cell-based
Settings: single drug versus irinotecan plus carboplatin combination
Experimental: As shown, therapeutic agents A and B are tested individually and together at two different ratios for their ability to cause cell death or cell stasis. In these experiments cell death or stasis was assessed using the MTT (3-[4,5-dimethylthiazol-2-yl]-2,5-diphenyltetrazolium) assay described below. Briefly, the dye MTT is reduced by living cells, producing a measurable change in optical density that is correlated to cell viability.
Correlations between the concentration of therapeutic agents A and B, and the two different combination ratios (Y:Z and X:Y) are plotted against cytotoxicity. Cytotoxicity is calculated as a percentage of surviving cells based on the survival of untreated control cells. […] Once this correlation has been established, the cell survival or fraction affected (fa) is used as a surrogate for concentration in calculating the CI.
The Chou-Talalay median-effect method is preferred. The analysis utilizes an equation wherein the dose that causes a particular effect, fa, is given by: D=Dm[fa/(1−fa)]^1/m in which D is the dose of the drug used, fa is the fraction of cells affected by that dose, Dm is the dose for median effect signifying the potency and m is a coefficient representing the shape of the dose-effect curve (m is 1 for first order reactions). […]

Row | SMILES | Concentration required to achieve a 90% cell kill on its own compared with the concentration required when combined at a non-antagonistic ratio
1 | N.N.O=C([O-])C1(C(=O)[O-])CCC1.[Pt+2] [carboplatin] | significantly higher
2 | CCc1c2c(nc3ccc(OC(=O)N4CCC(N5CCCCC5)CC4)cc13)-c1cc3c(c(=O)n1C2)COC(=O)[C@]3(O)CC [irinotecan] | significantly higher
